Source: paper PMC7482398 (Molecular Pharmaceutics, 2020)
Like-named read-outs stand apart in the source and are kept apart here.

How the values were obtained:
[1] = cited from earlier work
[2] = tested on: P-gp function at the blood–brain barrier; settings: rhesus monkey, in vivo
P-gp = settings: cited from earlier work
[3] = rhesus monkey, in vivo
[4] = rats, 30 min after tracer injection; cited from earlier work
P-gp function at the BBB = settings: cited from earlier work
Salmonella typhimurium = Salmonella typhimurium mutation test; cited from earlier work
Sprague Dawley rats = settings: male and female Sprague Dawley rats, 2.5 mg/kg body weight, 14 days of observation; cited from earlier work
Escherichia coli = Escherichia coli mutation test; cited from earlier work
[5] = after P-gp inhibition, tariquidar 8 mg/kg i.v. 30 min before PET

Structure (SMILES)	log D [1]	change in K1 between baseline and after-inhibition [2]	increase of whole brain VT from 10 min to 91-min data [2] [%]	VT (brain uptake at the baseline) (P-gp; mice and rats, baseline)	transporter selectivity (P-gp vs BCRP) (P-gp; ref Savolainen et al. (2017), 14)	plasma radioactivity representing the parent tracer [3] [%]	difference in biological T1/2 and Ke between baseline and after-inhibition scans ([3]; 8 mg/kg)	parent [18F]MC225 still available in plasma [4] [%]	K1 rats (P-gp function at the BBB; [5])	VT rats (P-gp function at the BBB; [5])	K1 rats (P-gp function at the BBB; baseline scans) [mL/mL/min]	VT rats (P-gp function at the BBB; baseline scans)	increase in K1 after tariquidar compared with baseline (P-gp function at the BBB; rats)	increase in VT after tariquidar compared with baseline (P-gp function at the BBB; rats)	whole brain K1 higher in tariquidar-treated rats than in control rats (P-gp function at the BBB; rats) [%]	whole brain VT higher in tariquidar-treated rats than in control rats (P-gp function at the BBB; rats) [%]	mutagenic activity (Salmonella typhimurium)	toxicity (Sprague Dawley rats)	mutagenic activity (Escherichia coli)
COc1cc2c(cc1OC)CN(CCCC1CCCc3c(OCC[18F])cccc31)CC2 (stereo not shown) [[^18F]MC225]	3.0	42–44%	165	6.6–11	selectively transported by P-gp and not by BCRP	50	did not find significant differences	24	0.81	20	0.12	7.7	6–11 fold	2–4 fold	575	159	–	–	–
COc1cc2c(cc1OC)CN(CCCC1CCCc3c(OCCF)cccc31)CC2 (stereo not shown) [MC225, 5-(1-(2-fluoroethoxy))-[3-(6,7-dimethoxy-3,4-dihydro-1H-isoquinolin-2-yl)-propyl]-5,6,7,8-tetrahydronaphthalen]	–	–	–	–	–	–	–	–	–	–	–	–	–	–	–	–	did not reveal any mutagenic activity	did not cause toxicity	did not reveal any mutagenic activity
